# Measured values: the NIST ThermoML archive (doi:10.1021/acs.jced.6b00350)
# Values joined by “and” are separate entries in the source; they are usually repeats but may differ in a detail not shown here. Identical values can stand only once. ± gives the expanded uncertainty stated by the source.
# Conditions: Liquid, Hot wire method
structure (smiles),measurement,setting,value
"FC(F)CC(F)(F)F [1,1,1,3,3-pentafluoropropane]",thermal conductivity,"242.09 K, 15292 kPa",0.1107 ± 0.0014 W/m/K
same,thermal conductivity,"242.09 K, 33385 kPa",0.1154 ± 0.0015 W/m/K
same,thermal conductivity,"242.09 K, 46702 kPa",0.1187 ± 0.0015 W/m/K
same,thermal conductivity,"242.09 K, 46703 kPa",0.1195 ± 0.0015 W/m/K
same,thermal conductivity,"242.1 K, 15296 kPa",0.1107 ± 0.0014 W/m/K
same,thermal conductivity,"242.1 K, 21026 kPa",0.1124 ± 0.0014 W/m/K
same,thermal conductivity,"242.1 K, 21045 kPa",0.1126 ± 0.0014 W/m/K
same,thermal conductivity,"242.1 K, 33384 kPa",0.1155 ± 0.0015 W/m/K
same,thermal conductivity,"242.1 K, 53712 kPa",0.1203 ± 0.0015 W/m/K
same,thermal conductivity,"242.11 K, 9885 kPa",0.1091 ± 0.0014 W/m/K
same,thermal conductivity,"242.11 K, 9889 kPa",0.1086 ± 0.0014 W/m/K
same,thermal conductivity,"242.11 K, 26987 kPa",0.1139 ± 0.0014 W/m/K
same,thermal conductivity,"242.11 K, 39778 kPa",0.1171 ± 0.0015 W/m/K
same,thermal conductivity,"242.12 K, 26965 kPa",0.1139 ± 0.0014 W/m/K
same,thermal conductivity,"242.12 K, 39775 kPa",0.1171 ± 0.0015 W/m/K
same,thermal conductivity,"242.12 K, 53701 kPa",0.1203 ± 0.0015 W/m/K
same,thermal conductivity,"242.12 K, 61286 kPa",0.1221 ± 0.0015 W/m/K
same,thermal conductivity,"242.13 K, 61278 kPa",0.1219 ± 0.0015 W/m/K
same,thermal conductivity,"242.14 K, 68636 kPa",0.1235 ± 0.0016 W/m/K
same,thermal conductivity,"242.14 K, 68676 kPa",0.1235 ± 0.0016 W/m/K
same,thermal conductivity,"242.19 K, 312 kPa",0.1058 ± 0.0014 W/m/K and 0.1064 ± 0.0014 W/m/K
same,thermal conductivity,"242.19 K, 4998 kPa",0.1075 ± 0.0014 W/m/K
same,thermal conductivity,"242.19 K, 5009 kPa",0.1078 ± 0.0014 W/m/K
same,thermal conductivity,"242.51 K, 46692 kPa",0.1189 ± 0.0015 W/m/K
same,thermal conductivity,"242.52 K, 46700 kPa",0.1191 ± 0.0015 W/m/K
same,thermal conductivity,"242.54 K, 33390 kPa",0.1155 ± 0.0015 W/m/K
same,thermal conductivity,"242.54 K, 33403 kPa",0.1154 ± 0.0015 W/m/K
same,thermal conductivity,"242.54 K, 53700 kPa",0.1204 ± 0.0015 W/m/K
same,thermal conductivity,"242.54 K, 53711 kPa",0.1205 ± 0.0015 W/m/K
same,thermal conductivity,"242.54 K, 61277 kPa",0.1221 ± 0.0015 W/m/K
same,thermal conductivity,"242.55 K, 15291 kPa",0.1107 ± 0.0014 W/m/K
same,thermal conductivity,"242.55 K, 21035 kPa",0.1123 ± 0.0014 W/m/K
same,thermal conductivity,"242.55 K, 21038 kPa",0.1121 ± 0.0014 W/m/K
same,thermal conductivity,"242.55 K, 39775 kPa",0.117 ± 0.0015 W/m/K
same,thermal conductivity,"242.55 K, 39776 kPa",0.1173 ± 0.0015 W/m/K
same,thermal conductivity,"242.55 K, 61245 kPa",0.122 ± 0.0015 W/m/K
same,thermal conductivity,"242.55 K, 68688 kPa",0.1238 ± 0.0016 W/m/K
same,thermal conductivity,"242.56 K, 26980 kPa",0.1136 ± 0.0014 W/m/K
same,thermal conductivity,"242.56 K, 26983 kPa",0.114 ± 0.0014 W/m/K
same,thermal conductivity,"242.56 K, 68673 kPa",0.1236 ± 0.0016 W/m/K
same,thermal conductivity,"242.57 K, 9883 kPa",0.109 ± 0.0014 W/m/K
same,thermal conductivity,"242.58 K, 9889 kPa",0.1092 ± 0.0014 W/m/K
same,thermal conductivity,"242.65 K, 5012 kPa",0.1074 ± 0.0014 W/m/K
same,thermal conductivity,"242.66 K, 307 kPa",0.1056 ± 0.0014 W/m/K
same,thermal conductivity,"242.66 K, 5012 kPa",0.1074 ± 0.0014 W/m/K
same,thermal conductivity,"242.67 K, 311 kPa",0.1059 ± 0.0014 W/m/K
same,thermal conductivity,"242.99 K, 46699 kPa",0.1186 ± 0.0015 W/m/K
same,thermal conductivity,"242.99 K, 46703 kPa",0.1187 ± 0.0015 W/m/K
same,thermal conductivity,"242.99 K, 53703 kPa",0.1204 ± 0.0015 W/m/K
same,thermal conductivity,"242.99 K, 53705 kPa",0.1205 ± 0.0015 W/m/K
same,thermal conductivity,"243 K, 61280 kPa",0.122 ± 0.0015 W/m/K
same,thermal conductivity,"243.01 K, 33387 kPa",0.1153 ± 0.0015 W/m/K
same,thermal conductivity,"243.01 K, 61272 kPa",0.122 ± 0.0015 W/m/K
same,thermal conductivity,"243.01 K, 68624 kPa",0.1235 ± 0.0016 W/m/K
same,thermal conductivity,"243.01 K, 68665 kPa",0.1235 ± 0.0016 W/m/K
same,thermal conductivity,"243.02 K, 33391 kPa",0.1157 ± 0.0015 W/m/K
same,thermal conductivity,"243.02 K, 39783 kPa",0.117 ± 0.0015 W/m/K
same,thermal conductivity,"243.03 K, 39791 kPa",0.1173 ± 0.0015 W/m/K
same,thermal conductivity,"243.04 K, 15285 kPa",0.1108 ± 0.0014 W/m/K
same,thermal conductivity,"243.04 K, 21046 kPa",0.1119 ± 0.0014 W/m/K
same,thermal conductivity,"243.04 K, 26979 kPa",0.1139 ± 0.0014 W/m/K
same,thermal conductivity,"243.05 K, 21037 kPa",0.1122 ± 0.0014 W/m/K
same,thermal conductivity,"243.05 K, 26975 kPa",0.1137 ± 0.0014 W/m/K
same,thermal conductivity,"243.06 K, 15300 kPa",0.1105 ± 0.0014 W/m/K
same,thermal conductivity,"243.07 K, 9881 kPa",0.1091 ± 0.0014 W/m/K
same,thermal conductivity,"243.07 K, 9885 kPa",0.1094 ± 0.0014 W/m/K
same,thermal conductivity,"243.16 K, 5024 kPa",0.1074 ± 0.0014 W/m/K
same,thermal conductivity,"243.17 K, 305 kPa",0.1059 ± 0.0014 W/m/K
same,thermal conductivity,"243.17 K, 5015 kPa",0.1075 ± 0.0014 W/m/K
same,thermal conductivity,"243.18 K, 306 kPa",0.1061 ± 0.0014 W/m/K
same,thermal conductivity,"261.13 K, 36952 kPa",0.1131 ± 0.0014 W/m/K
same,thermal conductivity,"261.13 K, 36968 kPa",0.1135 ± 0.0014 W/m/K
same,thermal conductivity,"261.17 K, 4289 kPa",0.1031 ± 0.0013 W/m/K
same,thermal conductivity,"261.17 K, 4298 kPa",0.1027 ± 0.0013 W/m/K
same,thermal conductivity,"261.17 K, 8849 kPa",0.103 ± 0.0013 W/m/K
same,thermal conductivity,"261.19 K, 14126 kPa",0.1062 ± 0.0014 W/m/K
same,thermal conductivity,"261.2 K, 14118 kPa",0.106 ± 0.0014 W/m/K
same,thermal conductivity,"261.21 K, 254 kPa",0.1005 ± 0.0013 W/m/K
same,thermal conductivity,"261.21 K, 260 kPa",0.1005 ± 0.0013 W/m/K
same,thermal conductivity,"261.21 K, 25237 kPa",0.1087 ± 0.0014 W/m/K
same,thermal conductivity,"261.22 K, 25223 kPa",0.1081 ± 0.0014 W/m/K
same,thermal conductivity,"261.23 K, 31202 kPa",0.1113 ± 0.0014 W/m/K
same,thermal conductivity,"261.23 K, 31204 kPa",0.1116 ± 0.0014 W/m/K
same,thermal conductivity,"261.52 K, 43978 kPa",0.1147 ± 0.0015 W/m/K
same,thermal conductivity,"261.55 K, 51260 kPa",0.1154 ± 0.0015 W/m/K
same,thermal conductivity,"261.55 K, 51262 kPa",0.1153 ± 0.0015 W/m/K
same,thermal conductivity,"261.56 K, 8838 kPa",0.1026 ± 0.0013 W/m/K
same,thermal conductivity,"261.57 K, 8847 kPa",0.1029 ± 0.0013 W/m/K
same,thermal conductivity,"261.57 K, 58812 kPa",0.1174 ± 0.0015 W/m/K
same,thermal conductivity,"261.58 K, 14132 kPa",0.1051 ± 0.0013 W/m/K
same,thermal conductivity,"261.58 K, 58797 kPa",0.1178 ± 0.0015 W/m/K
same,thermal conductivity,"261.6 K, 25212 kPa",0.1084 ± 0.0014 W/m/K
same,thermal conductivity,"261.6 K, 31216 kPa",0.1112 ± 0.0014 W/m/K
same,thermal conductivity,"261.61 K, 256 kPa",0.09949 ± 0.0013 W/m/K
same,thermal conductivity,"261.61 K, 263 kPa",0.09978 ± 0.0013 W/m/K
same,thermal conductivity,"261.61 K, 19564 kPa",0.1066 ± 0.0014 W/m/K
same,thermal conductivity,"261.61 K, 68826 kPa",0.1202 ± 0.0015 W/m/K
same,thermal conductivity,"261.61 K, 68837 kPa",0.1206 ± 0.0015 W/m/K
same,thermal conductivity,"261.62 K, 19569 kPa",0.107 ± 0.0014 W/m/K
same,thermal conductivity,"261.63 K, 68933 kPa",0.1198 ± 0.0015 W/m/K
same,thermal conductivity,"261.64 K, 68930 kPa",0.1197 ± 0.0015 W/m/K
same,thermal conductivity,"261.9 K, 36964 kPa",0.1125 ± 0.0014 W/m/K
same,thermal conductivity,"261.92 K, 43962 kPa",0.1136 ± 0.0014 W/m/K
same,thermal conductivity,"261.93 K, 43919 kPa",0.1146 ± 0.0015 W/m/K
same,thermal conductivity,"261.94 K, 51257 kPa",0.1157 ± 0.0015 W/m/K
same,thermal conductivity,"261.95 K, 51262 kPa",0.1157 ± 0.0015 W/m/K
same,thermal conductivity,"261.96 K, 58819 kPa",0.1174 ± 0.0015 W/m/K
same,thermal conductivity,"261.96 K, 58829 kPa",0.1179 ± 0.0015 W/m/K
same,thermal conductivity,"261.99 K, 68802 kPa",0.1199 ± 0.0015 W/m/K
same,thermal conductivity,"261.99 K, 68824 kPa",0.1198 ± 0.0015 W/m/K
same,thermal conductivity,"262 K, 8855 kPa",0.1037 ± 0.0013 W/m/K
same,thermal conductivity,"262 K, 8858 kPa",0.1032 ± 0.0013 W/m/K
same,thermal conductivity,"262 K, 14134 kPa",0.105 ± 0.0013 W/m/K
same,thermal conductivity,"262.01 K, 4294 kPa",0.1017 ± 0.0013 W/m/K
same,thermal conductivity,"262.01 K, 4301 kPa",0.1014 ± 0.0013 W/m/K
same,thermal conductivity,"262.01 K, 14121 kPa",0.1049 ± 0.0013 W/m/K
same,thermal conductivity,"262.01 K, 25254 kPa",0.1088 ± 0.0014 W/m/K
same,thermal conductivity,"262.01 K, 25264 kPa",0.1087 ± 0.0014 W/m/K
same,thermal conductivity,"262.01 K, 31199 kPa",0.1102 ± 0.0014 W/m/K and 0.1104 ± 0.0014 W/m/K
same,thermal conductivity,"262.01 K, 68921 kPa",0.1199 ± 0.0015 W/m/K
same,thermal conductivity,"262.02 K, 68914 kPa",0.1199 ± 0.0015 W/m/K
same,thermal conductivity,"262.04 K, 19538 kPa",0.1069 ± 0.0014 W/m/K
same,thermal conductivity,"262.04 K, 19563 kPa",0.1063 ± 0.0014 W/m/K
same,thermal conductivity,"262.06 K, 260 kPa",0.1002 ± 0.0013 W/m/K
same,thermal conductivity,"262.06 K, 263 kPa",0.1001 ± 0.0013 W/m/K
same,thermal conductivity,"262.33 K, 36929 kPa",0.1119 ± 0.0014 W/m/K
same,thermal conductivity,"262.35 K, 36937 kPa",0.1119 ± 0.0014 W/m/K
same,thermal conductivity,"262.36 K, 43961 kPa",0.1135 ± 0.0014 W/m/K
same,thermal conductivity,"262.36 K, 43965 kPa",0.1138 ± 0.0014 W/m/K
same,thermal conductivity,"262.37 K, 51242 kPa",0.1157 ± 0.0015 W/m/K
same,thermal conductivity,"262.38 K, 51253 kPa",0.1155 ± 0.0015 W/m/K
same,thermal conductivity,"262.39 K, 58814 kPa",0.1181 ± 0.0015 W/m/K
same,thermal conductivity,"262.39 K, 58816 kPa",0.1176 ± 0.0015 W/m/K
same,thermal conductivity,"262.4 K, 68835 kPa",0.1199 ± 0.0015 W/m/K
same,thermal conductivity,"262.41 K, 68836 kPa",0.1198 ± 0.0015 W/m/K
same,thermal conductivity,"262.43 K, 68875 kPa",0.1199 ± 0.0015 W/m/K
same,thermal conductivity,"262.43 K, 68907 kPa",0.1196 ± 0.0015 W/m/K
same,thermal conductivity,"262.46 K, 8826 kPa",0.1033 ± 0.0013 W/m/K
same,thermal conductivity,"262.46 K, 25272 kPa",0.1083 ± 0.0014 W/m/K
